Data: the supplement of paper PMC10307832

Experiments:
Assay in all cases: relative viability (nuclei count vs DMSO), 5 days (fraction); higher = more cells survive
Nelarabine + Phenformin = compound: COc1nc(N)nc2c1ncn2[C@@H]1O[C@H](CO)[C@@H](O)[C@@H]1O [Nelarabine] + N=C(N)NC(=N)NCCc1ccccc1 [Phenformin] (partner 250 µM)
How it was run: (§1)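 Lung cancer cell lines in 1536-well plates got either a single drug or a fixed anchor-drug dose together with five library-drug doses (not always all listed) in √10 steps, by pin tool, on the day after seeding. Nuclei were counted after 5 days, and relative viability is the treated-to-vehicle ratio of nuclei counts. Values are medians of duplicate plates.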

Adavosertib + Trametinib = compound: C=CCn1c(=O)c2cnc(Nc3ccc(N4CCN(C)CC4)cc3)nc2n1-c1cccc(C(C)(C)O)n1 [Adavosertib] + CC(=O)Nc1cccc(-n2c(=O)n(C3CC3)c(=O)c3c(Nc4ccc(I)cc4F)n(C)c(=O)c(C)c32)c1 [Trametinib] (partner 0.02 µM)
How it was run: as §1

Adavosertib + Pictilisib = compound: C=CCn1c(=O)c2cnc(Nc3ccc(N4CCN(C)CC4)cc3)nc2n1-c1cccc(C(C)(C)O)n1 [Adavosertib] + CS(=O)(=O)N1CCN(Cc2cc3nc(-c4cccc5[nH]ncc45)nc(N4CCOCC4)c3s2)CC1 [Pictilisib] (partner 1 µM)
How it was run: as §1

Adavosertib + AZD7762 = compound: C=CCn1c(=O)c2cnc(Nc3ccc(N4CCN(C)CC4)cc3)nc2n1-c1cccc(C(C)(C)O)n1 [Adavosertib] + NC(=O)Nc1cc(-c2cccc(F)c2)sc1C(=O)N[C@H]1CCCNC1 [AZD7762] (partner 0.2 µM)
How it was run: as §1

Row | Cell Line | relative viability (Nelarabine + Phenformin; first compound 0.01 µM) | relative viability (Nelarabine + Phenformin; first compound 0.03162 µM) | relative viability (Nelarabine + Phenformin; first compound 0.1 µM) | relative viability (Nelarabine + Phenformin; first compound 0.3162 µM) | relative viability (Nelarabine + Phenformin; first compound 1 µM) | relative viability (Adavosertib + Trametinib; first compound 0.01 µM) | relative viability (Adavosertib + Trametinib; first compound 0.03162 µM) | relative viability (Adavosertib + Trametinib; first compound 0.1 µM) | relative viability (Adavosertib + Trametinib; first compound 0.3162 µM) | relative viability (Adavosertib + Pictilisib; first compound 0.01 µM) | relative viability (Adavosertib + Pictilisib; first compound 0.03162 µM) | relative viability (Adavosertib + Pictilisib; first compound 0.1 µM) | relative viability (Adavosertib + Pictilisib; first compound 0.3162 µM) | relative viability (Adavosertib + AZD7762; first compound 0.01 µM) | relative viability (Adavosertib + AZD7762; first compound 0.03162 µM) | relative viability (Adavosertib + AZD7762; first compound 0.1 µM) | relative viability (Adavosertib + AZD7762; first compound 0.3162 µM)
1 | NCI-H727 | 0.604 | 0.589 | 0.642 | 0.508 | 0.682 | 0.427 | 0.383 | 0.396 | 0.385 | 0.525 | 0.341 | 0.359 | 0.366 | 0.636 | 0.406 | 0.445 | 0.394
2 | EPLC-272H | 0.236 | 0.291 | 0.272 | 0.265 | 0.291 | 0.293 | 0.309 | 0.288 | 0.275 | 0.277 | 0.414 | 0.303 | 0.295 | 0.161 | 0.151 | 0.127 | 0.135
3 | NCI-H2170 | 0.393 | 0.39 | 0.388 | 0.421 | 0.383 | 0.946 | 0.972 | 0.831 | 0.745 | 0.345 | 0.308 | 0.264 | 0.31 | 0.919 | 0.838 | 0.725 | 0.266
4 | NCI-H1355 | 0.442 | 0.413 | 0.418 | 0.433 | 0.455 | 0.442 | 0.373 | 0.445 | 0.457 | 0.476 | 0.404 | 0.45 | 0.378 | 0.734 | 0.599 | 0.406 | 0.307
5 | LOU-NH91 | 0.49 | 0.782 | 0.741 | 0.768 | 0.751 | 0.773 | 0.799 | 0.828 | 0.774 | 0.521 | 0.508 | 0.544 | 0.457 | 0.776 | 0.723 | 0.645 | 0.531
6 | HCC-78 | 0.709 | 0.684 | – | 0.709 | 0.701 | 0.859 | 0.737 | 0.888 | 0.852 | 0.194 | 0.221 | 0.255 | 0.171 | 0.512 | 0.603 | 0.564 | 0.368
7 | NCI-H322M | 0.819 | 0.716 | 0.762 | 0.776 | 0.745 | 0.48 | 0.489 | 0.471 | 0.389 | – | 0.521 | 0.504 | 0.421 | 0.472 | 0.427 | 0.387 | 0.337
8 | HCC-15 | 0.582 | 0.443 | 0.426 | 0.51 | 0.498 | 0.399 | 0.402 | 0.377 | 0.379 | 0.724 | 0.713 | 0.727 | 0.934 | 1.1 | 1.28 | 1.57 | 1.14
9 | A-427 | 0.315 | 0.22 | 0.306 | 0.289 | 0.236 | 0.771 | 0.808 | 0.805 | 0.565 | 0.735 | 0.653 | 0.684 | 0.798 | 0.692 | 0.4 | 0.327 | 0.231
10 | CAL-12T | 0.664 | 0.575 | 0.533 | 0.582 | 0.621 | 0.334 | 0.338 | 0.312 | 0.29 | – | 0.396 | 0.412 | 0.274 | 0.569 | 0.41 | 0.427 | 0.232
11 | NCI-H1793 | 0.45 | 0.366 | 0.315 | 0.472 | 0.406 | 0.44 | 0.421 | 0.501 | 0.395 | 0.385 | 0.295 | 0.318 | 0.248 | 0.407 | 0.2 | 0.14 | 0.179
12 | NCI-H460 | 1.35 | 0.648 | 0.646 | 0.611 | 0.482 | 0.179 | 0.137 | 0.197 | 0.124 | 0.315 | 0.355 | 0.289 | 0.417 | 0.376 | 0.507 | 0.169 | 0.0591
13 | HARA | 0.62 | 0.488 | 0.422 | 0.579 | 0.505 | 0.696 | 0.729 | 0.75 | 0.611 | 0.409 | 0.461 | 0.374 | 0.269 | 0.296 | 0.192 | 0.155 | 0.129
14 | NCI-H1437 | 0.304 | 0.309 | 0.318 | 0.302 | 0.325 | 0.546 | 0.545 | 0.484 | 0.414 | 0.371 | 0.435 | 0.401 | 0.404 | 1.11 | 1.11 | 1.15 | 0.581
15 | 201T | 0.459 | 0.416 | 0.451 | 0.433 | 0.417 | 0.657 | 0.707 | 0.736 | 0.718 | 0.668 | 0.683 | 0.625 | 0.654 | 0.615 | 0.537 | 0.471 | 0.267
16 | LC-2-ad | 0.618 | 0.613 | 0.637 | 0.54 | 0.536 | 0.865 | 0.908 | 0.914 | 1.04 | 0.455 | 0.587 | 0.424 | 0.37 | 0.792 | 0.846 | 0.817 | 0.62
17 | NCI-H441 | 0.862 | 0.93 | 0.666 | 0.898 | 0.883 | 0.432 | 0.509 | 0.373 | 0.423 | 0.561 | 0.497 | 0.378 | 0.33 | 1.12 | 0.989 | 0.658 | 0.355
